Experiment [1] has as its system IB3-1. Kind of experiment: Reduction of NF-kappaB binding to DNA in cystic fibrosis IB3-1 cells at 8 ug after 24 hrs. In kind it is functional.
For experiment [2], the species on record is Homo sapiens. Nature of the experiment: (§1) Reduction of Sp1 binding to DNA in cystic fibrosis 2CFSMEo cells at 8 ug after 24 hrs. In kind it is functional.
The subject of experiment [3] is IB3-1. Kind of experiment: Reduction of Sp1 binding to DNA in cystic fibrosis IB3-1 cells at 8 ug after 24 hrs. The experiment is classed as functional.
For experiment [4], the species on record is Homo sapiens. Kind of experiment: (§2) Reduction of NF-kappaB binding to DNA in cystic fibrosis 16HBE14o-AS3 cells at 8 ug after 24 hrs. The experiment is classed as functional.
The species named for experiment [5] is Homo sapiens. Nature of the experiment: (§3) Reduction of Sp1 binding to DNA in cystic fibrosis 16HBE14o-AS3 cells at 8 ug after 24 hrs. The experiment is classed as functional.
Experiment [6] is filed under the species Homo sapiens. Kind of experiment: (§4) Reduction of NF-kappaB binding to DNA in cystic fibrosis 2CFSMEo cells at 8 ug after 24 hrs. The experiment is classed as functional.
Experiment [7] can be described thus: Cell viability of 16HBE14o-S1 cells at 8 ug/ml after 24 hrs by trypan blue exclusion test. In kind it is functional, cell-based. Particulars: Homo sapiens.
The nature of experiment [8]: as §1. Also on record: scale not given: the % may be the effect or the level left. In kind it is functional, Homo sapiens.
Experiment [9] can be described thus: Reduction of TNFalpha mRNA level in cystic fibrosis 2CFSMEo cells at 8 ug after 24 hrs relative to control. The experiment is classed as functional, Homo sapiens. Also on record: scale not given: the % may be the effect or the level left.
Experiment [10] is described as follows: Cell viability of IB3-1 cells at 8 ug/ml after 24 hrs by trypan blue exclusion test. The experiment is classed as functional, cell-based. Particulars: Homo sapiens.
Experiment [11] is described as follows: Cell viability of 2CFSMEo cells at 8 ug/ml after 24 hrs by trypan blue exclusion test. In kind it is functional. Particulars: Homo sapiens.
A short description of experiment [12]: Cell viability of 16HBE14o-AS3 cells at 16 ug/ml after 24 hrs by trypan blue exclusion test. In kind it is functional. Particulars: Homo sapiens.
Experiment [13] concerns IB3-1. Nature of the experiment: Reduction of TNFalpha protein level in cystic fibrosis IB3-1 cells at 8 ug after 24 hrs by ELISA relative to control. The experiment is classed as functional, Homo sapiens. Also on record: scale not given: the % may be the effect or the level left. Background: An ELISA detects its analyte on a solid surface through an enzyme-linked reagent.

A short description of experiment [14]: Cell viability of 2CFSMEo cells at 16 ug/ml after 24 hrs by trypan blue exclusion test. In kind it is functional. The note with it: Homo sapiens.
Experiment [15] in a line: Reduction of TNFalpha protein level in cystic fibrosis 16HBE14oAS3 cells at 8 ug after 24 hrs by ELISA relative to control. In kind it is functional, Homo sapiens. Also on record: scale not given: the % may be the effect or the level left.
Experiment [16] can be described thus: Cell viability of C38 cells at 16 ug/ml after 24 hrs by trypan blue exclusion test.
Experiment [17] concerns IB3-1. Nature of the experiment: Reduction of TNFalpha mRNA level in cystic fibrosis IB3-1 cells at 8 ug after 24 hrs relative to control. The experiment is classed as functional, Homo sapiens. Also on record: scale not given: the % may be the effect or the level left.
Experiment [18] is described as follows: Cell viability of IB3-1 cells at 16 ug/ml after 24 hrs by trypan blue exclusion test. In kind it is functional, cell-based. Particulars: Homo sapiens.
Experiment [19] can be described thus: Reduction of TNFalpha mRNA level in cystic fibrosis 16HBE14o-AS3 cells at 8 ug after 24 hrs relative to control. The experiment is classed as functional, Homo sapiens. Also on record: scale not given: the % may be the effect or the level left.
A short description of experiment [20]: as §2. In kind it is functional, Homo sapiens. Also on record: scale not given: the % may be the effect or the level left.
Experiment [21] in a line: as §3. The experiment is classed as functional, Homo sapiens. Also on record: scale not given: the % may be the effect or the level left.
The nature of experiment [22]: Reduction of TNFalpha protein level in cystic fibrosis 2CFSMEo cells at 8 ug after 24 hrs by ELISA relative to control. The experiment is classed as functional, Homo sapiens. Also on record: scale not given: the % may be the effect or the level left.
Experiment [23] in a line: Cell viability of C38 cells at 8 ug/ml after 24 hrs by trypan blue exclusion test.
The nature of experiment [24]: Cell viability of 16HBE14o-AS3 cells at 8 ug/ml after 24 hrs by trypan blue exclusion test. In kind it is functional. Particulars: Homo sapiens.
Experiment [25] in a line: Cell viability of 16HBE14o-S1 cells at 16 ug/ml after 24 hrs by trypan blue exclusion test. The note with it: Homo sapiens. The experiment is classed as functional, cell-based.
Experiment [26] can be described thus: as §4. In kind it is functional, Homo sapiens. Also on record: scale not given: the % may be the effect or the level left.

Among the data in ChEMBL document CHEMBL1142091, “Azithromycin selectively reduces tumor necrosis factor alpha levels in cystic fibrosis airway epithelial cells” (2007) are Activity values, retold here.

Activity calls are given as the source filed them. The calls are words filed in the database; no cut-off is given here.

As to `CO[C@@H]1[C@@H](O[C@@H]2O[C@H](C)[C@@H](O[C@H]3C[C@@](C)(O)[C@@H](OC(=O)CC(C)C)[C@H](C)O3)[C@H](N(C)C)[C@H]2O)[C@@H](CC=O)C[C@@H](C)[C@@H](O)/C=C/C=C/C[C@@H](C)OC(=O)C[C@H]1OC(C)=O`, the outcome in experiment [1] (Homo sapiens), in experiment [2], in experiment [3] (Homo sapiens), in experiment [4], in [5] and in experiment [6] was inactive.

As for `CC[C@H]1OC(=O)[C@H](C)[C@@H](O[C@H]2C[C@@](C)(OC)[C@@H](O)[C@H](C)O2)[C@H](C)[C@@H](O[C@@H]2O[C@H](C)C[C@H](N(C)C)[C@H]2O)[C@](C)(O)C[C@@H](C)CN(C)[C@H](C)[C@@H](O)[C@]1(C)O` [AZITHROMYCIN], the Activity was more than 95% in [7]; 40% in experiment [1]; 65% in [8]; 30% in experiment [9]; more than 95% in experiment [10]; more than 95% in [11]. Moreover, the Activity in experiment [12] was less than 95%; in experiment [13], 45%; in experiment [14] it was less than 95%; in experiment [15], 50%; in [16], less than 95%; in experiment [17] it was 35%. The Activity in experiment [18] was less than 95%; in experiment [19], 25%; in experiment [3], 60%; in experiment [20], 45%; in [21] it was 64%; in [22] it was 40%. Further, the Activity is more than 95% in [23], more than 95% in [24], less than 95% in experiment [25] and 45% in experiment [26].
